Laboratory results from patent publication US20230322781A1 (Northwestern University, priority 2020, published 2023).
Entries after “also recorded” stand apart in the source; their conditions may differ. Structures can show the parent of a compound that is named as a salt.

Columns and labels:
[1] = literature value (ref 34); cited from earlier work
[2] = Water solubility (qualitative statements); assay type: physicochemical; conditions: H2O
[3] = Isothermal titration calorimetry (ITC) with CB[8]; assay type: binding; conditions: 1000 μM in syringe into CB[8] 50 μM; aqueous NaCl (1 mM), 298 K
Procedure: All microcalorimetric titrations were performed in a thermostated TA Nano Isothermal Titration calorimeter at atmospheric pressure and 298 K. The samples were dissolved in an aqueous NaCl (1.0 mM) solution, in order to improve the solubility of CB[8], and the concentrations of sample were calibrated by UV-Vis absorption spectroscopy after filtered by a 0.45-filter. A solution of one reactant in a syringe was sequentially injected with stirring at 150 rpm into a solution of the other reactant in the sample cell with a constant volume of 185 μL. A representative titration curve is shown in FIG. 24, each titration of reactant into the sample cell gave an apparent reaction heat caused by the formation of the inclusion complex. The reaction heat decreases gradually until a balance was reached, whereupon only the dilution heat was measured. The net reaction heat was obtained by subtracting the dilution heat from the apparent reaction heat. The resulting data were analyzed with NanoAnalyze software using a 1:1 binding model to give the complex stability constant (Ka), standard molar reaction enthalpy (ΔH), and standard deviations. Generally, the first point of the titration curve was disregarded, as there is some liquid mixing near the tip of the injection needle before ITC run. […]
The value for K1 can be determined to be 5.8×10^7 M^−1 by analysis of the UV-Vis titration data. […]

[4] = 1H NMR of equimolar mixture with CB[8]; assay type: binding; conditions: D2O, 298 K
Source text: The peaks in the spectrum were assigned on the basis of in-depth analyses of their 2D ^1H-^1H COSY and ROESY spectra. The chemical shifts of H-7, residing on the central phenylene groups, as well as H-5 and H-6, attached to the C═C double bonds, show (FIG. 2d) large upfield shifts (Δδ=−0.64, −0.43 and −1.12 for H-5, H-6, and H-7, respectively). While the protons on CB[8] display (FIG. 7) small upfield shifts (Δδ=−0.09, −0.11 and −0.13 for H-a, H-b, and H-c, respectively). […] Taken together, it can be concluded that, although OPVEBox^4+ and CBPQT^4+ have the same p-xylylene linkers, only OPVEBox^4+ can form ring-in-ring(s) complexes with CB[8] in aqueous solutions. […]
All solvents and reagents were obtained commercially and used without further purification unless noted otherwise. […] UV-Vis Absorption spectra were recorded in a conventional rectangular quartz cell (10×10×45 mm) on a UV-3600 Shimadzu spectrophotometer. Fluorescence spectra were measured in a rectangular quartz cell (10×10×45 mm) on a HORIBA FluoroMax-4 spectrometer, which was equipped with an integrating sphere for absolute fluorescence quantum yields determination and time-correlated single-photon counting (TCSPC) module for emission decays. […] Electrospray ionization-mass spectra (ESI-MS) were measured on Waters Synapt G2 mass spectrometer. […]

Question: For `CC12CC3CC(C)(C1)CC(N)(C3)C2` [memantine hydrochloride], which “binding affinity Ka for CB[8]” value [1] is on record?
Answer: Its value is 8.3e+12 M⁻¹.

Question: Which water solubility [2] does the source give for `O=C1N2CN3C(=O)N4CN5C(=O)N6CN7C(=O)N8CN9C(=O)N%10CN%11C(=O)N%12CN%13C(=O)N%14CN%15C(=O)N%16CN1C1C2N2CN%17C(=O)N(CN%18C(=O)N(CN%19C(=O)N(CN%20C(=O)N(CN%21C(=O)N(CN%22C(=O)N(CN%23C(=O)N(CN1C2=O)C%16C%15%23)C%14C%13%22)C%12C%11%21)C%10C9%20)C8C7%19)C6C5%18)C4C3%17` (stereo not shown) [CB[8], cucurbit[8]uril] here?
Answer: Its water solubility is “poor water solubility; also recorded: low solubility”.

Question: What does the source list for `c1cc2ccc1C[n+]1ccc(cc1)-c1cc[n+](cc1)Cc1ccc(cc1)C[n+]1ccc(cc1)-c1cc[n+](cc1)C2` [CBPQT^4+, cyclobis(paraquat-p-phenylene)]?
Answer: enthalpy change upon addition into CB[8] [3]: no obvious enthalpy change; binding with CB[8] by 1H NMR [4]: may bind very weakly to the p-xylylene linkers
